Here are results for one compound from US9463195B2, “Dissolution of amyloid fibrils by flavonoids and other compounds” (The Regents of the University of California, priority 2006, dated 2016).

SMILES strings stand for the structures. Where two headings read alike, the source gives them in different places.

For data set [1], the target named is T1, preformed human β-2 microglobulin fibrils (Homo sapiens, UniProt P61769). Nature of the data set: Thioflavin T fluorescence high-throughput screen (slope assay score) for disruption of preformed fibrils. It counts as biochemical. On the procedure: As used herein, “slope assay score” means the slope of the relative fluorescence of thioflavin T versus time curve for a given compound in a thioflavin T fluorescence assay. A negative slope signifies a decrease in thioflavin T fluorescence over time.
T1 sequence (P61769 21-119): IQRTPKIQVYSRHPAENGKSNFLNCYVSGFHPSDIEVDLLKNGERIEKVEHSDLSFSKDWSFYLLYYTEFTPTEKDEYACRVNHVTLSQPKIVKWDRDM
The human β-2 microglobulin fibrils were prepared in vitro at 0.1 mg/mL protein in 25 mM phosphate, pH 2, 0.2 M NaCl without agitation for 1 week at 37° C., in the same manner as Ivanova et al. See Ivanova et al. (Proc Natl Acad Sci U.S.A. 2004 Jul. 20; 101(29):10584-9).
In our experiments, disruption of the fibrillar structure of preformed β-2 microglobulin fibrils was monitored by fluorescence. The dye used, thioflavin T, serves as a probe for the presence or absence of amyloid fibrils. Thioflavin T binds specifically to human β-2 microglobulin fibrils, causing a red shift in the fluorescence excitation spectra of the dye to produce a peak in the fluorescence emission spectrum at 482 nm when the excitation wavelength is set at 444 nm. […] Because aliquotting of fibrils has an inherent variability, we aimed for a high signal/noise ratio of ˜10.
In the fluorescence assay used here, preformed human β-2 microglobulin fibrils were mixed with a solution of 5 μM ThT in 50 mM glycine, pH 8.6 in a 3:14 ratio (final concentrations: 4.1 μM ThT, 41.2 mM glycine, 0.018 mg/mL β-2 microglobulin, 35 mM NaCl and 4.4 mM phosphate). Fluorescence was measured immediately after mixing (excitation wavelength set at 444 nm, emission wavelengths at 482, 490, and 502 nm) with a Molecular Devices FlexStation II.
In our experiments, we screened 5200 compounds to determine whether a compound could disrupt preformed human β-2 microglobulin fibrils. Preformed β-2 microglobulin fibrils and ThT were mixed in the ratios described above in Example 2 and divided among seventeen 384-well glass-bottom plates (Costar #6569) using 40 μL/well. Each of the sixteen commercial plates contained four columns of control wells: columns 1, 2, and 23 contained preformed fibrils+dimethylsulfoxide (herein, DMSO), but no compound; column 24 contained nonfibrillar β2M+DMSO (no compound). The final concentrations of compound and DMSO in the other wells were 10 μM and 1%, respectively. Compounds were obtained from the following chemical libraries: the MicroSource Discovery Systems, Inc. Spectrum Collection library (J Virology 77: 10288 (2003); Ann Rev Med 56: 321 (2005)), the first four plates from the Prestwick Chemical Inc. library, two BIOMOL plates (phosphatase/kinase inhibitor library and bioactive lipid library), and the first five plates from the ChemBridge Corporation DIVERSet.
Plate 17 was prepared in-house and set up slightly differently than the commercial plates. Column 24 contains nonfibrillar B2M as in the other plates. However, only the first two rows contain added compounds, and the remaining rows contain control samples (fibrils mixed with thioflavin T, no compound). The chemicals used to prepare this supplemental plate were purchased from SIGMA. For each compound, a 1 mM solution in OmniSolv DMSO was prepared and filtered with Millex-FG 0.2 micron filters. The supplementary plate contained compounds at 1 or 10 mM in 100% DMSO, such that the final screening concentration is 10 or 100 μM compound in I% DMSO.
All plates were read manually on a Molecular Devices FlexStation II using the bottom-read function. For each of the wells, an initial fluorescence intensity measurement was taken as a baseline.

In data set [2] the target is T1, preformed human β-2 microglobulin fibrils. Briefly: Dose-response testing by thioflavin T fluorescence. It counts as biochemical. On the procedure: Twelve compounds were selected for testing their dose-response effects. Dose-response curves were derived as follows. Preformed β-2 microglobulin fibrils were mixed with ThT in the ratios described above and divided into portions of 40 μL per well across 8 wells. The final concentrations were the same as used in the high-throughput screen: 4.1 μM ThT, 41.2 mM glycine, 0.018 mg/mL B2M, 35 mM NaCl, 4.4 mM phosphate. The first and last wells of each row were controls (B2M fibrils+ThT+solvent (water or DMSO)). To wells 2-7 of a given row, test compound was added to the β2M fibril/ThT mix such that the following final concentrations in the well were reached: 10 mM, 1 mM, 100 μM, 10 μM, 1 μM, and 100 nM. Each row was set up in duplicate. The wells were incubated for 99 hours and data collected at 2.5 hour intervals. Compound 22 was tested using both water and DMSO as solvent.
It is visually apparent that concentrations down to 10 μM of both compound 22 and L18 affect the B2M/Tht fluorescence.

The target is the same in data set [3]. Briefly: Electron microscopy as a secondary screen of fibril disruption. Type of data set: biochemical. Here is the method:
Electron microscopy was used to confirm the effects of, among others, compounds 22 and L18 on the fibrils. Compounds 22 and L18 were mixed with drug and solvent or solvent alone and were separately incubated with preformed human β-2 microglobulin fibrils for two weeks. Compound 22 was tested at three concentrations (1 mM, 100 μM, and 10 μM). Aliquots were taken immediately after mixing, at day 2, at day 5, day 7, and day 14. Samples were fixed to grids (made hydrophilic by glow-discharge) upon taking the aliquots, washed with distilled water, and stained with 1% uranyl acetate. Grids were examined in a Hitachi H-7000 transmission electron microscope operating at 75 kV. Images were collected on Kodak electron microscope film 4489.

The conditions of data set [4]: cited from earlier work.
The conditions of data set [5]: orally at doses at least twice this high (Ullmann, Haller et al. 2004); cited from earlier work.

Regarding `O=C(O[C@@H]1Cc2c(O)cc(O)cc2O[C@@H]1c1cc(O)c(O)c(O)c1)c1cc(O)c(O)c(O)c1` [Compound 22, Epigallocatechin gallate], in data set [1], the “effective in the fluorescence assay at disrupting β-2 microglobulin fibers” value is on record as “disrupts”. Besides, in data set [1] (slope of relative ThT fluorescence versus time, more negative = stronger disruption), the “Slope Assay Score” value is reported as “−.087”. Besides, in data set [2], the “concentration at which the compound affects thioflavin T/β-2M fibril fluorescence in a dose-dependent manner” value came out at 10 µM and the “dose-dependent effect on thioflavin T/β-2 microglobulin fibril fluorescence (words)” value is “dose-dependent”. In addition, the “Dose-Response (conc. at which slope is better than control)” value in data set [2] (ThT/β2M fibril fluorescence, tested 100 nM to 10 mM) worked out at 10 µM. For the same compound, in data set [2] (in the range of), the “concentration at which preformed human B2M fibrils are disrupted” value is roughly 10 µM. The “dose-dependent effect on thioflavin T/β-2 microglobulin fibril fluorescence (words)” value in data set [2] (listed as EGCG) is listed as “dose-related effects”. Besides, the “state of fibrils by electron microscopy at 10 μM compound” value in data set [3] (10 μM, two-week incubation) is “significantly disrupted”. The “state of fibrils by electron microscopy at 1 mM compound” value in data set [3] (1 mM, two-week incubation) was “almost all of the fibrils”. In data set [3] (at the concentrations tested), the “effect on fibrils by electron microscopy” value is recorded as “had an effect on fibrils”. Besides, the average plasma level in data set [4] (patients, single oral dose (Chow et al. 2001)) is 1 µM. Further, the plasma levels reached in data set [4] (single oral dose (Nakagawa, Okuda and Miyazawa 1997)) is 4.4 µM. For the same compound, the “human plasma levels reached” value in data set [4] (single oral dose (Unno et al. 1996)) is 2 to 4 µM. For the same compound, in data set [5], the oral tolerability entry is recorded as “well-tolerated”. Besides, in “Solubility in water”, the solubility in water result was “soluble”.
